From patent US20110262508A1, “ANTIMICROBIAL COMPOSITIONS, FORMULATIONS AND USES THEREOF” (priority 2007, published 2011)
Peptide text beside a SMILES is read from it.

System: A. baumannii ATCC 19606, Acinetobacter spp. ATCC 17903, Acinetobacter spp. ATCC 19004, E. coli BL21, S. aureus, S. typhimurium AroA, P. aeruginosa, P. …
Assay: Antibacterial spectrum over the serial dilution panel (Table 6)
Format: cell-based
Conditions: summary of Table 6
Method: Synthetic peptides were tested for their ability to inhibit bacterial growth in liquid culture. The peptides were added at a concentration of between about 5 μM and about 10 μM to individual wells of 96-deep-well dishes that contained liquid growth media freshly inoculated with one of the following bacteria: A. baumannii ATCC Accession No. 19606, Acinetobacter spp. ATCC 17903, Acinetobacter spp. ATCC 19004, Escherichia coli strain BL21, S. aureus, S. typhimurium strain AroA, P. aeruginosa or P. pneumotropica. After 5-6 hours of shaking at 37° C., growth was measured as absorbance at 595 nm. As a control, cultures were grown in the presence of 0.1% acetonitrile (i.e., the concentration present in 10 μM peptide).

## CC[C@H](C)[C@H](NC(=O)[C@H](Cc1c[nH]c2ccccc12)NC(=O)[C@H](CC(=O)O)NC(=O)[C@H](CO)NC(=O)[C@H](CO)NC(=O)[C@H](CC(C)C)NC(=O)[C@H](CC(C)C)NC(=O)[C@H](C)NC(=O)[C@H](CO)NC(=O)[C@H](CCCNC(=N)N)NC(=O)[C@H](CC(C)C)NC(=O)[C@@H](N)CCCNC(=N)N)C(=O)N[C@H](C(=O)N[C@@H](CO)C(=O)N[C@@H](CO)C(=O)N[C@@H](CCCNC(=N)N)C(=O)N[C@@H](CC(C)C)C(=O)N[C@@H](CC(C)C)C(=O)NCC(=O)N[C@H](C(=O)N[C@@H](CC(N)=O)C(=O)N[C@@H](CO)C(=O)N[C@@H](CCC(N)=O)C(=O)O)C(C)C)C(C)C [Ac41] (H-RLRSALLSSDWIVSSRLLGVNSQ-OH; N-terminus and C-terminus assumed)
  selectively inhibited growth of Acinetobacter spp. ATCC 19004, and S. aureus: selectively inhibited growth

## CC[C@H](C)[C@H](NC(=O)CN)C(=O)NCC(=O)N[C@@H](CCCCN)C(=O)N[C@@H](Cc1ccccc1)C(=O)N[C@@H](CC(C)C)C(=O)N[C@@H](Cc1c[nH]cn1)C(=O)N[C@@H](CO)C(=O)N[C@@H](C)C(=O)N[C@@H](CCCCN)C(=O)N[C@@H](CCCCN)C(=O)N[C@@H](Cc1ccccc1)C(=O)NCC(=O)N[C@@H](CCCCN)C(=O)N[C@@H](C)C(=O)N[C@@H](Cc1ccccc1)C(=O)N[C@H](C(=O)NCC(=O)N[C@@H](CCC(=O)O)C(=O)N[C@H](C(=O)N[C@@H](CCSC)C(=O)N[C@@H](CC(N)=O)C(=O)N[C@@H](CO)C(=O)O)[C@@H](C)CC)C(C)C [Ac178, reference compound] (H-GIGKFLHSAKKFGKAFVGEIMNS-OH; N-terminus and C-terminus assumed)
  selectively inhibited growth of S. aureus: selectively inhibited growth

## CC[C@H](C)[C@H](NC(=O)[C@H](CCCNC(=N)N)NC(=O)[C@H](CCCNC(=N)N)NC(=O)[C@H](CS)NC(=O)CNC(=O)[C@H](CO)NC(=O)[C@@H](NC(=O)[C@@H](NC(=O)[C@H](CC(=O)O)NC(=O)[C@H](CCCCN)NC(=O)[C@@H](NC(=O)[C@H](CS)NC(=O)[C@@H](NC(=O)[C@@H](N)Cc1ccccc1)C(C)C)C(C)C)[C@@H](C)O)[C@@H](C)CC)C(=O)N[C@H](C(=O)NCC(=O)N[C@@H](Cc1ccccc1)C(=O)N[C@@H](CS)C(=O)N[C@H](C(=O)NCC(=O)N[C@@H](Cc1c[nH]c2ccccc12)C(=O)N[C@@H](CCCNC(=N)N)C(=O)N[C@@H](CC(C)C)C(=O)O)C(C)C)[C@@H](C)O [Ac102] (H-FVCVKDTISGCRRITGFCVGWRL-OH; N-terminus and C-terminus assumed)
  selectively inhibited growth of Acinetobacter spp. ATCC 19004, and S. aureus: selectively inhibited growth

## CC[C@H](C)[C@H](NC(=O)[C@H](CCCCN)NC(=O)[C@H](CO)NC(=O)[C@H](CC(C)C)NC(=O)[C@@H](N)CC(C)C)C(=O)N[C@@H](CCCNC(=N)N)C(=O)N[C@@H](C)C(=O)N[C@@H](CC(C)C)C(=O)N[C@@H](CCCNC(=N)N)C(=O)N[C@@H](CCCNC(=N)N)C(=O)N[C@@H](CCCNC(=N)N)C(=O)N[C@@H](CCCNC(=N)N)C(=O)N[C@@H](Cc1ccccc1)C(=O)NCC(=O)N[C@@H](CCC(N)=O)C(=O)N[C@@H](CS)C(=O)N[C@@H](CC(=O)O)C(=O)N[C@@H](CCCCN)C(=O)N[C@@H](CCCNC(=N)N)C(=O)N[C@H](C(=O)N[C@@H](CO)C(=O)N[C@@H](Cc1ccc(O)cc1)C(=O)N[C@@H](CCCCN)C(=O)O)[C@@H](C)CC [Ac15] (H-LLSKIRALRRRRFGQCDKRISYK-OH; N-terminus and C-terminus assumed)
  selectively inhibited growth of A. baumannii ATCC Accession No. 19606, Acinetobacter spp. ATCC 17903 and Acinetobacter spp. ATCC 19004: selectively inhibited growth

## CC[C@H](C)[C@H](NC(=O)[C@H](CCSC)NC(=O)[C@H](Cc1c[nH]c2ccccc12)NC(=O)[C@@H](N)Cc1c[nH]cn1)C(=O)N1CCC[C@H]1C(=O)N[C@@H](CC(C)C)C(=O)N[C@@H](CCCNC(=N)N)C(=O)N[C@@H](CCCCN)C(=O)NCC(=O)N[C@@H](C)C(=O)N[C@@H](CCC(N)=O)C(=O)N[C@@H](Cc1ccc(O)cc1)C(=O)N[C@@H](CCC(=O)O)C(=O)N[C@@H](CCC(=O)O)C(=O)N[C@@H](CC(C)C)C(=O)N[C@@H](CCCNC(=N)N)C(=O)N[C@@H](CCCCN)C(=O)N[C@@H](CC(C)C)C(=O)N[C@@H](CO)C(=O)N[C@@H](CCCCN)C(=O)NCC(=O)N[C@@H](CC(=O)O)C(=O)N[C@@H](Cc1c[nH]cn1)C(=O)O [Ac97] (H-HWMIPLRKGAQYEELRKLSKGDH-OH; N-terminus and C-terminus assumed)
  selectively inhibited growth of S. aureus: selectively inhibited growth

## CC[C@H](C)[C@H](NC(=O)[C@H](CC(C)C)NC(=O)[C@H](CCCCN)NC(=O)[C@@H](N)Cc1ccccc1)C(=O)N1CCC[C@H]1C(=O)N[C@H](C(=O)N[C@@H](CCCNC(=N)N)C(=O)N[C@@H](CCCNC(=N)N)C(=O)N[C@@H](CO)C(=O)N[C@@H](CO)C(=O)N[C@@H](CC(C)C)C(=O)N[C@H](C(=O)N[C@@H](CCCCN)C(=O)N[C@@H](CO)C(=O)N[C@@H](CC(C)C)C(=O)N1CCC[C@H]1C(=O)N[C@@H](C)C(=O)N[C@@H](Cc1ccccc1)C(=O)N[C@@H](CCCNC(=N)N)C(=O)N[C@@H](CCCNC(=N)N)C(=O)N[C@@H](CCCCN)C(=O)N[C@@H](C)C(=O)N1CCC[C@H]1C(=O)O)C(C)C)[C@@H](C)O [Ac116] (H-FKLIPTRRSSLVKSLPAFRRKAP-OH; N-terminus and C-terminus assumed)
  selectively inhibited growth of Acinetobacter spp. ATCC 19004: selectively inhibited growth

## CSCC[C@H](NC(=O)[C@H](CCCNC(=N)N)NC(=O)[C@H](CO)NC(=O)[C@H](CCCNC(=N)N)NC(=O)[C@H](CCCNC(=N)N)NC(=O)[C@H](CC(N)=O)NC(=O)[C@H](Cc1c[nH]cn1)NC(=O)[C@@H]1CCCN1C(=O)[C@H](Cc1c[nH]cn1)NC(=O)[C@@H]1CCCN1C(=O)[C@H](Cc1c[nH]cn1)NC(=O)[C@@H](NC(=O)[C@H](CCC(N)=O)NC(=O)[C@@H](NC(=O)[C@H](Cc1ccc(O)cc1)NC(=O)[C@H](Cc1c[nH]cn1)NC(=O)[C@H](Cc1c[nH]cn1)NC(=O)[C@H](Cc1c[nH]cn1)NC(=O)[C@@H](N)Cc1c[nH]c2ccccc12)[C@@H](C)O)[C@@H](C)O)C(=O)N[C@@H](CO)C(=O)N[C@@H](CCCNC(=N)N)C(=O)N[C@@H](C)C(=O)N[C@@H](CCCNC(=N)N)C(=O)O [Ac56] (H-WHHHYTQTHPHPHNRRSRMSRAR-OH; N-terminus and C-terminus assumed)
  selectively inhibited growth of S. aureus: selectively inhibited growth

## CC[C@H](C)[C@H](NC(=O)[C@H](CC(C)C)NC(=O)[C@H](CCCNC(=N)N)NC(=O)[C@@H](NC(=O)[C@@H](NC(=O)[C@H](Cc1ccc(O)cc1)NC(=O)[C@H](CCCCN)NC(=O)[C@@H](N)Cc1ccc(O)cc1)[C@@H](C)CC)[C@@H](C)CC)C(=O)N[C@@H](CCC(=O)O)C(=O)N[C@@H](CC(N)=O)C(=O)N[C@@H](Cc1c[nH]c2ccccc12)C(=O)NCC(=O)N[C@@H](CCC(=O)O)C(=O)N[C@@H](CO)C(=O)NCC(=O)N[C@@H](CO)C(=O)N[C@@H](CCCNC(=N)N)C(=O)N[C@@H](Cc1ccc(O)cc1)C(=O)N[C@@H](CO)C(=O)N[C@@H](CCCNC(=N)N)C(=O)N[C@H](C(=O)N[C@H](C(=O)N[C@@H](CCCNC(=N)N)C(=O)O)C(C)C)[C@@H](C)CC [Ac19] (H-YKYIIRLIENWGESGSRYSRIVR-OH)
  selectively inhibited growth of A. baumannii ATCC Accession No. 19606, Acinetobacter spp. ATCC 17903, Acinetobacter spp. ATCC 19004, and S. aureus: selectively inhibited growth
